By inhibition is commonly meant the relative decrease from the control value, in per cent.

Data on 16 compounds can be found in patent US12122763B2, “Substituted piperidines for androgen receptor degradation” (UBIX THERAPEUTICS, INC., priority 2020, dated 2024).

The target of this assay is T1, Androgen Receptor (AR) protein (Homo sapiens, UniProt P10275, T878A).
T1 construct: endogenous in cells; host or cells: LNCaP
As to the kind of experiment: Androgen Receptor (AR) protein degradation assay in LNCaP cells, western blotting. It counts as cell-based. The following applies: 20 h; for inhibition at 0.01 µM: 0.01 μM compound; for inhibition at 0.1 µM: 0.1 μM compound; for inhibition at 1 µM: 1 μM compound. The essentials:
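LNCaP prostate cancer cells were cultured 3 days, then treated with compound for 20 h. Lysates in 1% SDS buffer were normalised by BCA, and 8 μg protein was run on 4–12% Bis-Tris gels. AR was immunoblotted with chemiluminescence, using GAPDH/β-actin as loading controls.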

T1 sequence (P10275 whole entry T878A): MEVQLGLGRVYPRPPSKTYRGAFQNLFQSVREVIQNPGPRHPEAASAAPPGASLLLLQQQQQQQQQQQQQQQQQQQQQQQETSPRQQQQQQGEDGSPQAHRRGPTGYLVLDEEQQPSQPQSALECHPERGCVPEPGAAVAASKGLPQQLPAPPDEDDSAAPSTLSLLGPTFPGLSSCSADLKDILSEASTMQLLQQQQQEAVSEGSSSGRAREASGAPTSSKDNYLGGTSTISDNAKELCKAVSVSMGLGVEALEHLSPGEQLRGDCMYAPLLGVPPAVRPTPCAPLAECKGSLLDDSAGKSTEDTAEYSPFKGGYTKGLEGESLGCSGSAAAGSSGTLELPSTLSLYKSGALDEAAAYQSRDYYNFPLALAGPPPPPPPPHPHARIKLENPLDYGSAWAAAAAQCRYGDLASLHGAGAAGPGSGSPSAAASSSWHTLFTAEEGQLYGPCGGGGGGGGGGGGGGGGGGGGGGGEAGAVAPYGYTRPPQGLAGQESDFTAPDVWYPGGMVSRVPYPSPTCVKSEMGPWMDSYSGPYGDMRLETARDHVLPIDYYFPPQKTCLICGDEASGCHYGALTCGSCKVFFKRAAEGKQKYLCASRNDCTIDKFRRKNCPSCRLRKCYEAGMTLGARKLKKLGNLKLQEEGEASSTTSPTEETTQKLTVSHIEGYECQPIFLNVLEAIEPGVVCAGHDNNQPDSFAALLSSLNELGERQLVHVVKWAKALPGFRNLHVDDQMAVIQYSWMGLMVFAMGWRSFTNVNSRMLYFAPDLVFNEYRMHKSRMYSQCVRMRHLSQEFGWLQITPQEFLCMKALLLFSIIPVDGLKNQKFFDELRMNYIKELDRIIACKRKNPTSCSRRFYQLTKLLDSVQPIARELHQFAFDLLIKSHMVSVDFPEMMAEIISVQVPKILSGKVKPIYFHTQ
T1 sequence (Q96SW2 whole entry partner): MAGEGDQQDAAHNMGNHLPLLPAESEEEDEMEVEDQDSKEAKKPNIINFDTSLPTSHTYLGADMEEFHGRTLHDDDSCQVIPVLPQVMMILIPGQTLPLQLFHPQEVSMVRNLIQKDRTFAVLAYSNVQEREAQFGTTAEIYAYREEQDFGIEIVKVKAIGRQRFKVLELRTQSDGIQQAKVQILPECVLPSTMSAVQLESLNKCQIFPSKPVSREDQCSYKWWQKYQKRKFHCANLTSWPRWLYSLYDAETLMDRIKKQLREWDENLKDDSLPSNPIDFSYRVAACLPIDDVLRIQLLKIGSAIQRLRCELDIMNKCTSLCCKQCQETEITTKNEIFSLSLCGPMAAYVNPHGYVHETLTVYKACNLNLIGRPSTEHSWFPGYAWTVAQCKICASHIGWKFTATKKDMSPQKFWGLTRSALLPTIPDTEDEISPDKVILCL

Regarding `N#Cc1ccc(N2CCC(C(=O)Nc3ccc(N4CCC(CN5CC[C@H](CN6CCN(c7ccc8c(c7)C(=O)N(C7CCC(=O)NC7=O)C8=O)CC6)C5)CC4)cn3)CC2)cc1C(F)(F)F` (stereo partly drawn) [Example 82, 1-(4-cyano-3-(trifluoromethyl)phenyl)-N-(5-(4-(((3S)-3-((4-(2-(2,6-dioxopiperidin-3-yl)-1,3-dioxoisoindolin-5-yl)piperazin-1-yl)methyl)pyrrolidin-1-yl)methyl)piperidin-1-yl)pyridin-2-yl)piperidine-4-carboxamide], the inhibition at 0.01 µM was 33%, the inhibition at 0.1 µM was 87% and the inhibition at 1 µM came to 95%.
On to `N#Cc1ccc(N2CCC(C(=O)Nc3ccc(N4CCC(CN5CC[C@@H](CN6CCN(c7ccc8c(c7)C(=O)N(C7CCC(=O)NC7=O)C8=O)CC6)C5)CC4)cn3)CC2)cc1C(F)(F)F` (stereo partly drawn) [Example 83, 1-(4-cyano-3-(trifluoromethyl)phenyl)-N-(5-(4-(((3R)-3-((4-(2-(2,6-dioxopiperidin-3-yl)-1,3-dioxoisoindolin-5-yl)piperazin-1-yl)methyl)pyrrolidin-1-yl)methyl)piperidin-1-yl)pyridin-2-yl)piperidine-4-carboxamide], for which the inhibition at 0.01 µM worked out at 25%, the inhibition at 0.1 µM was 87% and the inhibition at 1 µM was 96%.
For the compound `CN(CC1CCN(c2ccc(NC(=O)C3CCN(c4ccc(C#N)c(C(F)(F)F)c4)CC3)nc2)CC1)CC1CCN(c2ccc3c(c2)C(=O)N(C2CCC(=O)NC2=O)C3=O)CC1` (stereo not drawn) [Example 84, 1-(4-cyano-3-(trifluoromethyl)phenyl)-N-(5-(4-((((1-(2-(2,6-dioxopiperidin-3-yl)-1,3-dioxoisoindolin-5-yl)piperidin-4-yl)methyl)(methyl)amino)methyl)piperidin-1-yl)pyridin-2-yl)piperidine-4-carboxamide], the inhibition at 0.01 µM came to 59%, the inhibition at 0.1 µM stood at 89% and the inhibition at 1 µM stood at 88%.
The matching figures for `N#Cc1ccc(N2CCC(C(=O)Nc3ccc(N4CCC(CN5CC6CN(c7ccc8c(c7)C(=O)N(C7CCC(=O)NC7=O)C8=O)CC6C5)CC4)cn3)CC2)cc1C(F)(F)F` (stereo not drawn) [Example 85, 1-(4-cyano-3-(trifluoromethyl)phenyl)-N-(5-(4-((5-(2-(2,6-dioxopiperidin-3-yl)-1,3-dioxoisoindolin-5-yl)hexahydropyrrolo[3,4-c]pyrrol-2(1H)-yl)methyl)piperidin-1-yl)pyridin-2-yl)piperidine-4-carboxamide]: 24%, 89% and 92%.
On to `N#Cc1ccc(N2CCC(C(=O)Nc3ccc(N4CCC(CCN5CCN(c6ccc7c(c6)C(=O)N(C6CCC(=O)NC6=O)C7=O)CC5)CC4)cn3)CC2)cc1C(F)(F)F` (stereo not drawn) [Example 86, 1-(4-cyano-3-(trifluoromethyl)phenyl)-N-(5-(4-(2-(4-(2-(2,6-dioxopiperidin-3-yl)-1,3-dioxoisoindolin-5-yl)piperazin-1-yl)ethyl)piperidin-1-yl)pyridin-2-yl)piperidine-4-carboxamide], for which the inhibition at 0.01 µM was 65%, the inhibition at 0.1 µM was 94% and the inhibition at 1 µM is 96%.
Turning to `N#Cc1ccc(N2CCC(C(=O)Nc3ccc(N4CCC(CCN5CCN(c6ccc7c(c6)C(=O)N(C6CCC(=O)NC6=O)C7=O)CC5)CC4)cn3)CC2)cc1Cl` (stereo not drawn) [Example 87, 1-(3-chloro-4-cyanophenyl)-N-(5-(4-(2-(4-(2-(2,6-dioxopiperidin-3-yl)-1,3-dioxoisoindolin-5-yl)piperazin-1-yl)ethyl)piperidin-1-yl)pyridin-2-yl)piperidine-4-carboxamide], the inhibition at 0.01 µM was 30%, the inhibition at 0.1 µM worked out at 88% and the inhibition at 1 µM came to 90%.
`N#Cc1ccc(N2CCC(F)(C(=O)Nc3ccc(N4CCC(CCN5CCN(c6ccc7c(c6)C(=O)N(C6CCC(=O)NC6=O)C7=O)CC5)CC4)cn3)CC2)cc1C(F)(F)F` (stereo not drawn) [Example 88, 1-(4-cyano-3-(trifluoromethyl)phenyl)-N-(5-(4-(2-(4-(2-(2,6-dioxopiperidin-3-yl)-1,3-dioxoisoindolin-5-yl)piperazin-1-yl)ethyl)piperidin-1-yl)pyridin-2-yl)-4-fluoropiperidine-4-carboxamide]: the inhibition at 0.01 µM amounted to 35%, the inhibition at 0.1 µM was found to be 87% and the inhibition at 1 µM was determined as 96%.
For `N#Cc1ncc(N2CCC(C(=O)Nc3ccc(N4CCC(CCN5CCN(c6ccc7c(c6)C(=O)N(C6CCC(=O)NC6=O)C7=O)CC5)CC4)cn3)CC2)cc1C(F)(F)F` (stereo not drawn) [Example 89, 1-(6-cyano-5-(trifluoromethyl)pyridin-3-yl)-N-(5-(4-(2-(4-(2-(2,6-dioxopiperidin-3-yl)-1,3-dioxoisoindolin-5-yl)piperazin-1-yl)ethyl)piperidin-1-yl)pyridin-2-yl)piperidine-4-carboxamide], in that order: 35%, 73% and 91%.
For `N#Cc1ncc(N2CCC(F)(C(=O)Nc3ccc(N4CCC(CCN5CCN(c6ccc7c(c6)C(=O)N(C6CCC(=O)NC6=O)C7=O)CC5)CC4)cn3)CC2)cc1C(F)(F)F` (stereo not drawn) [Example 90, 1-(6-cyano-5-(trifluoromethyl)pyridin-3-yl)-N-(5-(4-(2-(4-(2-(2,6-dioxopiperidin-3-yl)-1,3-dioxoisoindolin-5-yl)piperazin-1-yl)ethyl)piperidin-1-yl)pyridin-2-yl)-4-fluoropiperidine-4-carboxamide], the inhibition at 0.01 µM is 23%, the inhibition at 0.1 µM came to 57% and the inhibition at 1 µM is 82%.
The matching figures for `N#Cc1ccc(N2CCC(C(=O)Nc3ccc(N4CCC(CCN5CCN(C6CCN(c7ccc8c(c7)C(=O)N(C7CCC(=O)NC7=O)C8=O)CC6)CC5)CC4)cn3)CC2)cc1C(F)(F)F` (stereo not drawn) [Example 91, 1-(4-cyano-3-(trifluoromethyl)phenyl)-N-(5-(4-(2-(4-(1-(2-(2,6-dioxopiperidin-3-yl)-1,3-dioxoisoindolin-5-yl)piperidin-4-yl)piperazin-1-yl)ethyl)piperidin-1-yl)pyridin-2-yl)piperidine-4-carboxamide]: 48%, 96% and 98%.
The matching figures for `N#Cc1ccc(N2CCC(C(=O)Nc3ccc(N4CCC(CCN5CCN(c6ccc7c(n6)CN(C6CCC(=O)NC6=O)C7=O)CC5)CC4)cn3)CC2)cc1C(F)(F)F` (stereo not drawn) [Example 92, 1-(4-cyano-3-(trifluoromethyl)phenyl)-N-(5-(4-(2-(4-(6-(2,6-dioxopiperidin-3-yl)-5-oxo-6,7-dihydro-5H-pyrrolo[3,4-b]pyridin-2-yl)piperazin-1-yl)ethyl)piperidin-1-yl)pyridin-2-yl)piperidine-4-carboxamide]: 53%, 67% and 96%.
For `N#Cc1ccc(N2CCC(C(=O)Nc3ccc(N4CCC(CCN5CCN(c6cccc7c6C(=O)N(C6CCC(=O)NC6=O)C7=O)CC5)CC4)cn3)CC2)cc1C(F)(F)F` (stereo not drawn) [Example 93, 1-(4-cyano-3-(trifluoromethyl)phenyl)-N-(5-(4-(2-(4-(2-(2,6-dioxopiperidin-3-yl)-1,3-dioxoisoindolin-4-yl)piperazin-1-yl)ethyl)piperidin-1-yl)pyridin-2-yl)piperidine-4-carboxamide], the inhibition at 0.01 µM was -11%, the inhibition at 0.1 µM turned out to be 55% and the inhibition at 1 µM was determined as 68%.
As to `N#Cc1ccc(N2CCC(C(=O)Nc3ccc(N4CCC(CCN5CC6(CCN(c7ccc8c(c7)C(=O)N(C7CCC(=O)NC7=O)C8=O)CC6)C5)CC4)cn3)CC2)cc1C(F)(F)F` (stereo not drawn) [Example 94, 1-(4-cyano-3-(trifluoromethyl)phenyl)-N-(5-(4-(2-(7-(2-(2,6-dioxopiperidin-3-yl)-1,3-dioxoisoindolin-5-yl)-2,7-diazaspiro[3.5]nonan-2-yl)ethyl)piperidin-1-yl)pyridin-2-yl)piperidine-4-carboxamide], the inhibition at 0.01 µM amounted to 75%, the inhibition at 0.1 µM is 98% and the inhibition at 1 µM came to 98%.
As to `N#Cc1ccc(N2CCC(C(=O)Nc3ccc(N4CCC(CCN5CCC6(CC5)CN(c5ccc7c(c5)C(=O)N(C5CCC(=O)NC5=O)C7=O)C6)CC4)cn3)CC2)cc1C(F)(F)F` (stereo not drawn) [Example 95, 1-(4-cyano-3-(trifluoromethyl)phenyl)-N-(5-(4-(2-(2-(2-(2,6-dioxopiperidin-3-yl)-1,3-dioxoisoindolin-5-yl)-2,7-diazaspiro[3.5]nonan-7-yl)ethyl)piperidin-1-yl)pyridin-2-yl)piperidine-4-carboxamide], the inhibition at 0.01 µM came out at 62%, the inhibition at 0.1 µM was 96% and the inhibition at 1 µM is 97%.
Take `N#Cc1ccc(N2CCC(C(=O)Nc3ccc(N4CCC(CCN5CCC6(CC5)CN(c5ccc7c(n5)CN(C5CCC(=O)NC5=O)C7=O)C6)CC4)cn3)CC2)cc1C(F)(F)F` (stereo not drawn) [Example 96, 1-(4-cyano-3-(trifluoromethyl)phenyl)-N-(5-(4-(2-(2-(6-(2,6-dioxopiperidin-3-yl)-5-oxo-6,7-dihydro-5H-pyrrolo[3,4-b]pyridin-2-yl)-2,7-diazaspiro[3.5]nonan-7-yl)ethyl)piperidin-1-yl)pyridin-2-yl)piperidine-4-carboxamide]: the inhibition at 0.01 µM stood at 71%, the inhibition at 0.1 µM came out at 93% and the inhibition at 1 µM is 91%.
The matching figures for `N#Cc1ccc(N2CCC(C(=O)Nc3ccc(N4CCC(CCN5CC(N6CCN(c7ccc8c(c7)C(=O)N(C7CCC(=O)NC7=O)C8=O)CC6)C5)CC4)cn3)CC2)cc1C(F)(F)F` (stereo not drawn) [Example 97, 1-(4-cyano-3-(trifluoromethyl)phenyl)-N-(5-(4-(2-(3-(4-(2-(2,6-dioxopiperidin-3-yl)-1,3-dioxoisoindolin-5-yl)piperazin-1-yl)azetidin-1-yl)ethyl)piperidin-1-yl)pyridin-2-yl)piperidine-4-carboxamide]: 39%, 93% and 96%.
